These results are taken from ChEMBL document CHEMBL1201862, “PubChem BioAssay data set” (2004).

Test systems include MDA-N; CAKI-1; RPMI-8226; Hs-578T; DU-145; DMS-273; NCI-H226; UACC-62; OVCAR-5; U-251; CCRF-CEM; KM12; SF-539; OVCAR-3; EKVX; LOX IMVI; HCT-15; NCI-H522; MDA-MB-231; MOLT-4.
Holding throughout (experiment): NCI tumour cell line growth inhibition, 48 h

Each structure is given as a SMILES string.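 Exposure lasted 48 hours, with cells grown in 96-well plates and compounds tested at five concentrations. GI50 marks 50% less growth.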 Active and inactive are the calls of the source. Rule as the data show it: active = GI50 up to about 1.1 µM and inactive = higher. Some results are limits rather than exact numbers.

In the case of `O=C(CCN1CCCCC1)Nc1ccc2c(c1)C(=O)c1ccc(NC(=O)CCN3CCCCC3)cc1C2=O`, the GI50 in the test on MDA-N was 1.65 µM (inactive); in the test with CAKI-1 it was 12.6 µM (inactive); in the test on RPMI-8226, 4.43 µM (inactive); with Hs-578T it was 11.7 µM (inactive); in the test with DU-145, 14 µM (inactive); with DMS-273, 1.71 µM (inactive). Moreover, the GI50 with NCI-H226 is 15.6 µM (inactive); in the test with UACC-62, 19.9 µM (inactive); with OVCAR-5, 16.5 µM (inactive); with U-251 it was 4.98 µM (inactive); with CCRF-CEM, 2.37 µM (inactive); in the test with KM12, 1.62 µM (inactive). In addition, the GI50 in the test with SF-539 is 2.61 µM (inactive); with OVCAR-3, 8.11 µM (inactive); in the test with EKVX, 15.6 µM (inactive); in the test on LOX IMVI, 1.75 µM (inactive); with HCT-15 it was 2.59 µM; in the test on NCI-H522, 16.9 µM (inactive). Besides, the GI50 is 2.04 µM (inactive) in the test with MDA-MB-231 and 3.83 µM (inactive) with MOLT-4.
For `CN(C)C(=S)NC(=S)Nc1ccc2ccccc2c1`, the GI50 was 12.9 µM (inactive) with MDA-N; 13.9 µM (inactive) with CAKI-1; 5.56 µM (inactive) in the test with RPMI-8226; 33.1 µM (inactive) in the test on Hs-578T; 18.2 µM (inactive) with DU-145; 1.67 µM (inactive) in the test on DMS-273. Also, the GI50 with NCI-H226 is 12.1 µM (inactive); in the test with UACC-62, 2.14 µM (inactive); in the test on OVCAR-5, 21.2 µM (inactive); with U-251, 11.6 µM (inactive); in the test on CCRF-CEM, 0.804 µM (active); in the test with KM12, 12.4 µM (inactive). Besides, the GI50 in the test with SF-539 is 15.1 µM (inactive); in the test on OVCAR-3, 14.4 µM (inactive); in the test with EKVX, 14.1 µM (inactive); in the test with LOX IMVI it was 6.64 µM (inactive); in the test on HCT-15, 9.89 µM; with NCI-H522, 5.7 µM (inactive). The GI50 with MDA-MB-231 is 20 µM (inactive); with MOLT-4, 4.93 µM (inactive).
`CN(C)CCN(C)CCC(=O)/C=C/c1ccccc1`: the GI50 in the test with CAKI-1 is 22.7 µM (inactive); in the test with RPMI-8226, 2.16 µM (inactive); with DMS-273, 17.4 µM (inactive); in the test on NCI-H226 it was > 48.1 µM (inactive); with UACC-62, 25.4 µM (inactive); in the test on OVCAR-5, > 60.1 µM (inactive). In addition, the GI50 in the test on U-251 is 57.7 µM (inactive); with CCRF-CEM it was 3.48 µM (inactive); with KM12, 20.5 µM (inactive); in the test on SF-539, 19.1 µM (inactive); in the test with OVCAR-3, 27.7 µM (inactive); in the test on EKVX, 32.1 µM (inactive). For the same molecule, the GI50 was 12.6 µM (inactive) in the test on LOX IMVI, 21.8 µM with HCT-15, 4.02 µM (inactive) with NCI-H522 and 7.26 µM (inactive) with MOLT-4.
`N#CCCN(C1=NN(C(=O)CC(=O)Nc2ccc(Cl)cc2)C(c2ccccc2)C1)c1ccc(Cl)cc1` (stereo not given): the GI50 in the test on CAKI-1, with RPMI-8226, in the test with DMS-273, in the test with NCI-H226, in the test with UACC-62 and in the test with OVCAR-5 was > 100 µM (inactive) in each case. The GI50 in the test with U-251, with CCRF-CEM, with KM12, in the test on SF-539, in the test on OVCAR-3 and in the test on EKVX was > 100 µM (inactive) throughout. Also, the GI50 with LOX IMVI was > 100 µM (inactive); with HCT-15 it was > 100 µM; in the test on NCI-H522, > 100 µM (inactive); in the test on MOLT-4 it was > 100 µM (inactive).
In the case of `O=C(COc1ccc(Br)cc1Br)N1N=C(c2ccc([N+](=O)[O-])o2)CC1(O)c1ccccc1` (stereo not given), the GI50 in the test on CAKI-1 is 14.5 µM (inactive); with RPMI-8226 it was 2.11 µM (inactive); with DMS-273 it was 12.8 µM (inactive); with NCI-H226, 18.2 µM (inactive); in the test on UACC-62, 4.95 µM (inactive); with OVCAR-5, 29.3 µM (inactive). Further, the GI50 is 8.73 µM (inactive) in the test with U-251; 3.13 µM (inactive) in the test on CCRF-CEM; 17.4 µM (inactive) in the test with KM12; > 10 µM (inactive) in the test on SF-539; 3.93 µM (inactive) in the test on OVCAR-3; 2.79 µM (inactive) with EKVX. Also, the GI50 in the test on LOX IMVI was 5.47 µM (inactive); in the test with HCT-15 it was 6.19 µM; with NCI-H522, 5.48 µM (inactive); in the test on MOLT-4, 2.64 µM (inactive).
For `CN(C)c1ccc(/C=C/c2ccc(/C=C/c3ccc(N(C)C)cc3)cc2)cc1`, the GI50 is > 100 µM (inactive) in the test with CAKI-1; 63.8 µM (inactive) in the test on RPMI-8226; > 100 µM (inactive) in the test with DMS-273; 81.8 µM (inactive) in the test on NCI-H226; 87.3 µM (inactive) in the test on UACC-62; > 100 µM (inactive) in the test on OVCAR-5. Moreover, the GI50 in the test with U-251, with CCRF-CEM, with KM12, in the test on SF-539, in the test with OVCAR-3 and in the test with EKVX was > 100 µM (inactive) in each case. Besides, the GI50 was > 100 µM (inactive) in the test with LOX IMVI, > 100 µM in the test with HCT-15, > 100 µM (inactive) in the test with NCI-H522 and > 100 µM (inactive) in the test with MOLT-4.
Consider `Cc1cc(N(CCC#N)CCC#N)ccc1/C=C(\NC(=O)/C=C/c1ccccc1)C(=O)Nc1ccc(Cl)cc1`, for which the GI50 in the test with MDA-N is 5.01 µM (inactive); with CAKI-1 it was > 28.3 µM (inactive); in the test on RPMI-8226, 10 µM (inactive); in the test on Hs-578T, > 100 µM (inactive); in the test on DU-145, > 100 µM (inactive); with DMS-273, 0.982 µM (active). Further, the GI50 in the test on NCI-H226 was > 69 µM (inactive); in the test with UACC-62, 0.577 µM (active); with OVCAR-5, 54.6 µM (inactive); in the test with U-251, > 7.53 µM (inactive); in the test on CCRF-CEM, 2.44 µM (inactive); in the test on KM12, 3.74 µM (inactive). The GI50 with SF-539 is 6.81 µM (inactive); in the test on OVCAR-3, 50.8 µM (inactive); with EKVX, > 80.2 µM (inactive); in the test with LOX IMVI, 1.14 µM (inactive); in the test on HCT-15 it was 11.7 µM; in the test on NCI-H522, > 26.2 µM (inactive). Moreover, the GI50 in the test with MDA-MB-231 was > 100 µM (inactive); with MOLT-4, 38.1 µM (inactive).
`OC12c3ccccc3C3CCC4(OCCO4)C3C1c1ccccc12` (stereo not given): the GI50 with CAKI-1 is > 100 µM (inactive); in the test with RPMI-8226, 64 µM (inactive); in the test with DMS-273, > 100 µM (inactive); in the test with NCI-H226, > 100 µM (inactive); in the test on UACC-62, > 100 µM (inactive); with OVCAR-5 it was > 100 µM (inactive). In addition, the GI50 in the test with U-251, in the test on CCRF-CEM, with KM12, with SF-539, in the test on OVCAR-3 and with EKVX was > 100 µM (inactive) throughout. The GI50 with LOX IMVI was > 100 µM (inactive); in the test on HCT-15, > 100 µM; in the test on NCI-H522, 65 µM (inactive); in the test with MOLT-4 it was 48.6 µM (inactive).
